Experimental data as given in patent publication US12391683B2, “Therapeutic compounds and methods” (Actio Biosciences, Inc., priority 2022, dated 2025).

Columns and labels:
[1] = target: T1, TRPM5 channels (Homo sapiens, UniProt Q9NZQ8); assay: TRP Family FLIPR Assay, TRPM5; type: cell-based; conditions: CHO cells
T1 construct: expressed in transfected cells; host or cells: CHO
T1 sequence (Q9NZQ8 1-1165): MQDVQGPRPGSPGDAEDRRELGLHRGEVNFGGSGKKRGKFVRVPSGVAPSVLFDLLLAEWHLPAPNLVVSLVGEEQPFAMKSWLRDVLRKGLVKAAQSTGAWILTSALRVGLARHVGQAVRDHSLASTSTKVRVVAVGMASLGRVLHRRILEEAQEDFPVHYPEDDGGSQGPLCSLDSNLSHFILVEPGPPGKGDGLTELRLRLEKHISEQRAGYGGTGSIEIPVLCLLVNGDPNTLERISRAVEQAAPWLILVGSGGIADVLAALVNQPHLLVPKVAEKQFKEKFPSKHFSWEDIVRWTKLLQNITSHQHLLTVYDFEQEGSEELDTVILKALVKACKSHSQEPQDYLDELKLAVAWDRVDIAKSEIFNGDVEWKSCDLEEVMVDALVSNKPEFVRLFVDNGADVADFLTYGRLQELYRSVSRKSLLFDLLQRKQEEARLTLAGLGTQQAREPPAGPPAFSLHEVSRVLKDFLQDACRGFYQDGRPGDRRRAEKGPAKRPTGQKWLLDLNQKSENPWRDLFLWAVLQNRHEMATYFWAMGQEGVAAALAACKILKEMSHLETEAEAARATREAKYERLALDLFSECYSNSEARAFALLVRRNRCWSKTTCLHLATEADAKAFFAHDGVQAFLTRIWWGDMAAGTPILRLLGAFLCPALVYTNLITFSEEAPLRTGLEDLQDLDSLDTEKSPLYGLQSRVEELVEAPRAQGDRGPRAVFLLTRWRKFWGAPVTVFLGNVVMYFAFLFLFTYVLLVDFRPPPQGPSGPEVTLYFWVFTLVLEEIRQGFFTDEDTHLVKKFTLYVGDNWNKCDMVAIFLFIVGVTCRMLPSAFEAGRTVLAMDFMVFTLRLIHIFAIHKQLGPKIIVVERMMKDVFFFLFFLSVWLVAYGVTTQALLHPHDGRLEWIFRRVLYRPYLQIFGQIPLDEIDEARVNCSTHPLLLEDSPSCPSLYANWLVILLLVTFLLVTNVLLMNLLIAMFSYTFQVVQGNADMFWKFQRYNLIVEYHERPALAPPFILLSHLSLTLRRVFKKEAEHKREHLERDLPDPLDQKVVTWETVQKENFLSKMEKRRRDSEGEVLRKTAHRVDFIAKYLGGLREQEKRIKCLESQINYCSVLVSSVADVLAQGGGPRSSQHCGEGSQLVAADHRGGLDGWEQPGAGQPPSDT
Protocol: (§1) The compound of Example 5 was tested for selectivity against a panel of Human TRP family ion channels in a TRP Family FLIPR Assay as described below. • 1. TRPC3 channels (human TRPC3 variant 1 gene, expressed in HEK293 cells). • 2. TRPC4 channels (human TRPC4 gene, expressed in HEK293 cells). • 3. TRPC5 channels (human TRPC5 gene, expressed in HEK293 cells). • 4. TRPC6 channels (human TRPC6 gene, expressed in HEK293 cells). • 5. TRPM2 channels (human TRPM2 gene, transiently expressed in HEK293 cells). • 6. TRPM3 channels (human TRPM3 gene, transiently expressed in HEK293 cells). • 7. TRPM4 channels (human TRPM4 gene, expressed in CHO cells). • 8. […]
(§2) Data acquisition was performed via the FLIPR Control software supplied with the FLIPR System (MDS-AT) and data was analyzed using Microsoft Excel (Microsoft Corp., Redmond, WA) or GraphPad Prism. […]
(§3) [formula] where Base is the response at low concentrations of test article, Max is the maximum response at high concentrations, xhalf the EC50, or IC50, the concentration of test article producing either half-maximal activation or inhibition, and rate is the Hill coefficient. […] No assumptions about the fit parameters was made; the fit parameters were determined by the algorithm.
(§4) The effect of each test article was evaluated at eight (8) concentrations: 0.003, 0.01, 0.03, 0.1, 0.3, 1, 3 and 10 μM, n≤4 wells/concentration). […]

[2] = target: T2, TRPM4 channels (Homo sapiens, UniProt Q8TD43); assay: TRP Family FLIPR Assay, TRPM4; type: cell-based; conditions: CHO cells
T2 construct: expressed in transfected cells; host or cells: CHO
T2 sequence (Q8TD43 whole entry): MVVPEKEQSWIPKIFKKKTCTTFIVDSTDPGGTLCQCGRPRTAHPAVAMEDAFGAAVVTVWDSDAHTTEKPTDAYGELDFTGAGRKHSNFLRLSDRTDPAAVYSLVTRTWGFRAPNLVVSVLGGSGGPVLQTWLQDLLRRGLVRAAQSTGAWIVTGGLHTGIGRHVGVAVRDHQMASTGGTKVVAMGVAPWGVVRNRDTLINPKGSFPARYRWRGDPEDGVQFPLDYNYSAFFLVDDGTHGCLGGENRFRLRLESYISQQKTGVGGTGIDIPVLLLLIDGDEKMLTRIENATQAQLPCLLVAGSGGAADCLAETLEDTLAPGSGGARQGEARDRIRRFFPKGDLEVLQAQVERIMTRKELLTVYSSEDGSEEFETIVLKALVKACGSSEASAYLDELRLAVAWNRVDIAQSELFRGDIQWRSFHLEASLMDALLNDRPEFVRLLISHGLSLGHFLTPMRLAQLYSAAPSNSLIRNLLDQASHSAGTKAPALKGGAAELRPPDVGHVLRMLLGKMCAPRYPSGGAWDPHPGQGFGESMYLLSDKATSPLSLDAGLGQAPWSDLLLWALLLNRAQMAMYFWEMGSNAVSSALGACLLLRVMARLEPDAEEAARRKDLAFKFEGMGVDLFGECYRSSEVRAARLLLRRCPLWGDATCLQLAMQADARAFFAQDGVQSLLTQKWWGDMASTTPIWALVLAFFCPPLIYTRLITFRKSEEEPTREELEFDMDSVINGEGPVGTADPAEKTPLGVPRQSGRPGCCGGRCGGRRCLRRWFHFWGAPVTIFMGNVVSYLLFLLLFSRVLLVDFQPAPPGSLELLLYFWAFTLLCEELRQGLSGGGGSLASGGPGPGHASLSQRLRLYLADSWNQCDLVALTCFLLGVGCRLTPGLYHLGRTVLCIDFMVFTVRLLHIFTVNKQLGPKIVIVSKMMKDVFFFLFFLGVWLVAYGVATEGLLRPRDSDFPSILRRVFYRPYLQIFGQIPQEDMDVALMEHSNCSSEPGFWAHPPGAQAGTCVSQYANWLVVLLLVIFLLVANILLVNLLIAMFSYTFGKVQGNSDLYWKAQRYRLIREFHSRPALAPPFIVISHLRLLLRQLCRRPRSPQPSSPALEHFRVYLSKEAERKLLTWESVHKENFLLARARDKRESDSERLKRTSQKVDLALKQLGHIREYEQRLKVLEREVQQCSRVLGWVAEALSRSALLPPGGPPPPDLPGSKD
Protocol: as §1, §2, §3, §4

CC(C)(O)c1cnc(N2C[C@@]3(CC[C@@H](F)[C@](C)(Cn4cnc5ccc(C#N)cc54)C3)OC2=O)cn1 (single isomer, unassigned) [Example 5]
> 10 µM: EC50 ([1]; agonist mode, vs EMAX of Mg-ATP 33.3 μM, read-out: EC50 hTRPM5) | IC50 ([1]; antagonist mode, activated with Mg-ATP 75 μM, 0.003-10 μM, read-out: IC50 hTRPM5) | EC50 ([2]; agonist mode, vs EMAX of A23187 3.3 μM, read-out: EC50 hTRMP4) | IC50 ([2]; antagonist mode, activated with A23187 10 μM, 0.003-10 μM, read-out: IC50 hTRMP4)
